Measurements from US20240074473A1, “METHOD FOR INDUCING HYPERTROPHIC MUSCLE FIBERS FOR INDUSTRIAL MEAT PRODUCTION” (Yeda Research and Development Co. Ltd., priority 2021, published 2024).

Tests used:
chicken myoblasts [1] = assay: Immunofluorescence of sarcomeric proteins in chicken myotubes; type: cell-based; conditions: 48 hours post treatment
Method: (§1) Chicken primary derived myoblasts were used as a model to evaluate the efficiency of SCH772984 as the ERKi, compared to conventional differentiation medium (DM) for the purpose of producing muscle (meat) in tissue culture conditions. Chicken myoblasts were isolated from chicken embryos and expanded in proliferation medium. When sufficient cell numbers were acquired, cells were seeded on tissue culture plates and allowed to adhere for 24 hours. Then medium was changed to either PM supplemented with ERKi or DM. At 24-hours post treatment, the cells that received ERKi were replenished with fresh PM (without the addition of more ERKi), and DM treated cells were replenished with fresh DM. Media was replaced daily over a period of 72 hours.

primary mouse myoblasts [2] = assay: Proliferation markers KI-67 and pH3 staining in primary mouse myoblasts; type: cell-based; conditions: 1 μM ERKi, 24 hours
Method: Immunofluorescence staining. First passage primary myoblasts isolated from various strains (indicated in figure legends) were plated in 96-well plates or chamber slides and treated as previously described. The cells were fixed with ice cold 4% PFA in PBS for 10 minutes, permeabilized with 0.5% Triton X-100 in PBS for 6 minutes, and blocked in PBS with 0.025% tween, 10% normal horse serum and 10% normal goat serum for 1 hour at room temperature. Primary antibody incubation was done in blocking buffer overnight at 4 degrees, with the following antibodies: Myosin Heavy Chain (MyHC, MF20, DSHB hybridoma supernatant 1:10, or MY-32 ABCAM ab51263 1:400), Myogenin (MYOG sc-13137 SCBT 1:200), pHistone 3 (PH3, ab47297 ABCAM 1:1000), Ki-67 (Cell Marque #275R), RYR (ab2868 ABCAM 1:100), and pCaMKII (SIGMA SAB4504356 1:100). Cells were washed 3 times in PBS with 0.025% tween and then incubated with appropriate secondary antibodies in PBS 1 hour. Where indicated, nuclei were either labeled with DAPI (SIGMA D9542, 5 ug/ml) or Hoechst 33342 (Thermo scientific #62249, 1:2000). Fixed cells at 24 hours post treatment with indicated inhibitors were imaged using the Nikon Eclipse Ti2 microscope (further described in microscopy section). All analysis was performed on at least 1000 nuclei. […]

primary bovine myoblasts = assay: Fusion index of primary bovine myoblasts; type: cell-based; conditions: single administration of 0.5 uM, 72 hours post treatment
Method: (§2) Bovine myoblasts were seeded in equal number in 96-well plates and the following day treated either with PM, PM supplemented with 0.5 uM SCH 772984 (ERKi) or differentiation media (DM). Media was replenished daily either with fresh PM or DM (ERKi was not added again). At 72 hours post treatment, cells were fixed and stained for myosin heavy chain, and several fields per condition were imaged. Nuclei per fiber was quantified per field to result in a fusion index. For ovine myoblasts—equal number of cells were seeded in an 8 well chamber slide for 24 hours. The following day cells were treated with either with 1 uM SCH 772984 (ERKi) or differentiation media (DM), supplemented with 100 nM of Sir-Actin reagent, then incubated for 4 hours and then the slide was transferred to a heated and CO2 chambered microscope unit. Several fields of view were selected and live imaging was performed by capturing images of each field every 7 minutes. The series of images for each treatment over a period of 31 hours was stacked into a movie file using ImageJ.
Primary bovine myoblast isolation and treatment: bovine myoblasts were isolated from freshly slaughtered muscle cow muscle with collagenase type II. Following tissue dissociation, the cell suspension was grown for 3-4 days on 10% Matrigel coated plates. […]

primary mouse myoblasts [3] = assay: qRT-PCR gene expression in primary mouse myoblasts; type: cell-based
Method: (§3) Quantitative real-time PCR (qRT-PCR). Total RNA was isolated using Tri-Reagent (SIGMA) according to the manufacturer's instructions. cDNA was synthesized with the High Capacity cDNA Reverse Transcription Kit (Applied Biosystems according to the manufacturer's instructions. qRT-PCR was performed with SYBR green PCR Master Mix (Applied Biosystems) using the StepOnePlus Real-time PCR system (Applied Biosystems). Values for specific genes were normalize to either Gapdh or Hprt housekeeping control as indicated in Figure legend. Expression was calculated using the ddCT method.
First passage primary mouse derived myoblast were seeded in proliferation media, in equal number in 12-well tissue culture plates that were precoated with 10% Matrigel solution. Following 24 hours to allow for complete attachment, culture media was washed and replaced either with fresh proliferation media (PM), PM supplemented with 1 uM SCH 772984 (ERKi) or differentiation media (DM). After 24 hrs, cells were lysed and RNA was collected. Gene expression analysis was carried out using SYBR green qRT-PCR analysis.

ERK1/2 and RXR = assay: Co-immunoprecipitation of ERK1/2 and RXR in myoblasts; type: cell-based, mouse; conditions: 1 uM, 4 hours, nuclear lysates
Method: Co-immunoprecipitation (Co-IP). Primary myoblasts derived from gastrocnemius muscle were pooled from 10 mice and plated on 15 cm dishes and allowed to adhere for 24 hours. The following day, Bio-Amf2 media was replaced supplemented either with DMSO or 1 uM SCH772984. […] 1 mg of protein was used to immunoprecipitate ERK1/2 using 2 ug of ERK1/2Antibody (Sigma M7927). Rabbit IgG was used as a control. […] 1% of original volume of lysate loaded into IP reaction was loaded into the gel as input control. Membranes were blotted with RXR antibody (SCBT sc-553).

ovine myoblasts = assay: Live imaging of fusion in ovine myoblasts; type: cell-based; conditions: sheep derived myoblasts, 1 μM
Method: as §2

chicken myoblasts [4] = assay: qRT-PCR gene expression in chicken myoblasts; type: cell-based
Method: as §3, §1

Q: How did the “Sarcomeric structure (striation of actinin, troponin, phalloidin signals)” value (chicken myoblasts [1]) turn out when `O=C(Nc1ccc2[nH]nc(-c3ccncc3)c2c1)[C@@H]1CCN(CC(=O)N2CCN(c3ccc(-c4ncccn4)cc3)CC2)C1` [SCH772984] was run?
A: sarcomeric structure is already apparent

Q: What about the “Cell cycle (KI-67 and phosphorylated Histone 3 staining)” value (primary mouse myoblasts [2]) of the same molecule?
A: undergo cell-cycle arrest

Q: What about the “Increase in fusion index compared to DM” value (primary bovine myoblasts) of the same molecule?
A: ~8 fold

Q: And the “Increase in fusion index compared to DM” value (primary bovine myoblasts; listed as ERKi)?
A: 6 fold

Q: And the “Expression of Ryr1, Ryr3, SERCA1/2, Orai and STIM” value (primary mouse myoblasts [3]; ERKi 24 hrs vs Ctrl)?
A: upregulated

Q: And the “Expression of differentiation and fusion factors MyoD, MyoG, Mymk, Mymx” value (primary mouse myoblasts [3]; ERKi in growth medium, time course)?
A: upregulated

Q: What about the “Expression of maturation markers myosin heavy chain and troponin compared to DM” value (primary mouse myoblasts [3]; mouse myoblasts, 1 uM ERKi in PM, 24 hrs) of the same molecule?
A: stronger expression

Q: What about the “RXR immunoprecipitated with ERK1/2 (interaction)” value (ERK1/2 and RXR) of the same molecule?
A: attenuated

Q: And the “Fusion and myotube formation compared to DM” value (ovine myoblasts)?
A: significantly more fusion and myotube formation

Q: What about the “Gene expression of maturation/differentiation markers mrf4, myh1, myh2, tnnt3 compared with DM” value (chicken myoblasts [4]) of the same molecule?
A: elevated gene expression

Q: What about the “Downregulation of Myf5 expression compared to DM” value (chicken myoblasts [4]; 72 hour timecourse) of the same molecule?
A: stronger across all time points

Q: What about the “Pax7 RNA expression” value (chicken myoblasts [4]; 72 hour timecourse) of the same molecule?
A: reduction
